Test results from US20240252524A1 (Hovione Scientia Limited, priority 2021, published 2024).
Values joined by “and” are separate entries in the source; they are usually repeats but may differ in a detail not shown here. Equal entries are not always repeated. Where two headings read alike, the source gives them in different places.

Assays:
[1] = cited from earlier work
[2] = room temperature, cited from earlier work
[3] = Particle size by laser diffraction (Sympatec HELOS) before/after high shear mixing; format: physicochemical
Excerpt: The particle size data were obtained from a Sympatec module HELOS (Helium-Neon Laser Optical System), dispersion Unit RODOS/M, potent products accessory ASPIROS, lens R5 (4.50 μm-875 μm) and R4 (1.80 μm-350 μm), conditions R5, 0.1 bar-1 bar, 18 mm/s, R4, 3 bar, 18 mm/s

[4] = cited from earlier work; remark: listed apart in the source
[5] = Stability of ivermectin under the high shear mixer process; format: physicochemical; conditions: high shear mixer process of the invention
Excerpt: Under the conditions set forth in this invention, ivermectin is submitted to high shear forces without suffering decomposition. High shear mixing processes provide stressful conditions which promote decomposition of the compounds submitted to such processes. The stressful conditions involve recirculating mixtures of the compounds with solvents, at very high speed, through mechanical systems which generate unaligned forces, driving to strong collisions between the particles and the mechanical parts of the high shear mixer and between the particles themselves. Such collisions break the particles of the product thus reducing their particle size. A side effect of the mechanical collisions is a significant increase in the temperature during the high shear mixer process. […] In fact, ivermectin is purified with good yields under the high shear process conditions set forth in this invention.

Ivermectin
optimum pH for ivermectin stability in solution [1]: 6.3
Pharmacopoeia Classification ([2]; Acetone): Soluble
Solubility ([2]; Acetone): 81 mg/mL
Pharmacopoeia Classification ([2]; Diethyl ether): Soluble
Solubility ([2]; Diethyl ether): 61 mg/mL
Pharmacopoeia Classification ([2]; Dimethylformamide): Freely soluble
Solubility ([2]; Dimethylformamide): 510 mg/mL
Pharmacopoeia Classification ([2]; Ethanol): Soluble
Solubility ([2]; Ethanol): 97 mg/mL
Pharmacopoeia Classification ([2]; Ethyl acetate): Freely soluble
Solubility ([2]; Ethyl acetate): 240 mg/mL
Pharmacopoeia Classification ([2]; Isopropanol (2-propanol)): Soluble
Solubility ([2]; Isopropanol (2-propanol)): 70 mg/mL
Pharmacopoeia Classification ([2]; Methanol): Freely soluble
Solubility ([2]; Methanol): 220 mg/mL
Pharmacopoeia Classification ([2]; Methyl Ethyl ketone): Freely soluble
Solubility ([2]; Methyl Ethyl ketone): 320 mg/mL
Pharmacopoeia Classification ([2]; Tetrahydrofuran): Freely soluble
Solubility ([2]; Tetrahydrofuran): 390 mg/mL
Pharmacopoeia Classification ([2]; Toluene): Soluble
Solubility ([2]; Toluene): 63 mg/mL
Pharmacopoeia Classification ([2]; Water): Practically Insoluble
Solubility ([2]; Water): 0.000001 mg/mL
Pharmacopoeia Classification ([2]; n-Hexane): Slightly soluble
Solubility ([2]; n-Hexane): 0.69 mg/mL
Pharmacopoeia Classification ([2]; p-Dioxane): Freely soluble
Solubility ([2]; p-Dioxane): 430 mg/mL
D (90) after high shear mixing ([3]; Example 1: ethanol/water/formamide/methylparaben, 2000 RPM, about 3 hours, 0-5° C.): 56 μm
Dv(90) after high shear mixing ([3]; Example 2: ethanol/water/formamide/BHA, 2000 RPM, about 3 hours, 0-5° C.): 53 μm
Dv(90) after high shear mixing ([3]; Example 3: ethanol (100 ml)/water (50 ml)/formamide/methylparaben, 2000 RPM, about 3 hours, 0-5° C.): 57 μm
Dv(90) after high shear mixing ([3]; Example 4: water/isopropanol/formamide/methylparaben, 2000 RPM, about 3 hours, 0-5° C.): 56 μm
Dv(90) after high shear mixing ([3]; Example 5: water (16 ml)/ethanol (16 ml)/formamide, 1000 RPM, about 2 hours, 0-5° C.): 42 μm
Dv(90) after high shear mixing ([3]; Example 6: water (26 ml)/ethanol (30 ml)/formamide, 1000 RPM, about 2 hours, 0-5° C.): 36 μm
Dv(90) after high shear mixing ([3]; Example 7: water (1 ml)/ethanol (30 ml)/formamide, 1000 RPM, about 2 hours, 0-5° C.): 56 μm
D (90) / Dv(90) of starting ivermectin ([3]; before high shear mixing): 301 μm and 295 μm and 300 μm
solubility in water [4]: low solubility in water
decomposition under high shear mixer process [5]: did not decompose the product
